Experimental data: US20160106104A1, “SILICONE-BASED ANTIMICROBIAL COMPOSITION” (UNIVERSITE DU MAINE, priority 2013, published 2016)

Columns and labels:
Type in all cases: cell-based
[1] = system: Candida albicans IHEM 14796; experiment: Tests on yeast according to ISO 22196; details: incubation 24 h
Procedure: The antibacterial activity of the silicone compositions of the invention was tested on the yeast line Candida albicans IHEM 14796, according to the procedure of the ISO 22196 standard (second edition, 2011).
(§1) The silicone films prepared in Example 5A were used.
The procedure followed is identical with that of Example 5A.

[2] = system: Escherichia coli ATCC 8739; experiment: Antibacterial activity of silicone films, ISO 22196; details: incubation 24 h at 37° C., detection limit log10(N)=1.4
Procedure: (§2) The antibacterial activity of the silicone compositions of the invention was tested on 6 lines of bacteria, according to the procedure for the ISO 22196 standard (second edition, 2011).
(§3) The lines of tested bacteria are: Klebsiella pneumoniae DSM 16609, Staphylococcus aureus ATCC 25923, Enterococcus faecalis ATCC 29212, Escherichia coli ATCC 8739, Acinetobacter baumannii CIP 70.34 and Enterobacter cloacae DSM 30054.
(§4) Silicone films were prepared according to Examples 2 and 3, comprising 0%, 2% or 5% of antimicrobial agent PHMG-DBS, OMIM-BF4 or DMIM-BF4 (7 types of silicone films were therefore prepared).
(§5) Square pieces of silicone films with dimensions 25 mm×25 mm were cut out, as well as squares of polypropylene of dimension 20 mm×20 mm. The latter were passed in the autoclave at 115° C. for 20 minutes.
(§6) The bacteria were cultivated overnight at 37° C. in an agar culture medium. Suspensions of bacteria were then prepared in a nutrient broth culture medium with a bacterial concentration of 6.10^5 CFU/ml.
(§7) Each silicone square (not sterilized) was placed on a lid of a Petri dish with a diameter of 55 mm, which itself was placed in a Petri dish with a diameter of 94 mm. 100 μl of bacterial suspension were deposited on each silicone square and spread out by means of a polypropylene square. 10 ml of sterile water were added in the bottom of the Petri dish with a diameter of 94 mm in order to ensure high relative humidity during incubation at 37° C. for 24 hours. For each silicone film type, three specimens were made.
(§8) After incubation, each silicone film was placed in a new Petri dish and washed with 10 ml of […] (SCDLP, according to the standard procedure of the ISO standard) for recovering the bacteria. After 5 washes, the SCDLP suspension was diluted down to 10^−6, and 1 ml of obtained solution was placed on a gelose plate PCA (duplicated). Each plate was incubated at 37° C. for 24 hours. The number of colonies on each Petri dish was then counted.
(§9) The viability of the bacteria depending on the obtained results was calculated by means of the following formula: […]
(§10) wherein: • N refers to the number of viable bacteria observed per cm^2 of each tested sample, • C refers to the average count of colonies on each gelose plate PCA, and • D refers to the dilution factor used for the counting.
(§11) The results of the viability measurements of the bacteria, expressed in log10(N), are gathered in Table 1, the detection limit having been set to a number of recovered bacteria equal to 10 (i.e. log10(N)=1.4).

[3] = system: Klebsiella pneumoniae DSM 16609; experiment: as above; details: incubation 24 h at 37° C., detection limit log10(N)=1.4
Procedure: as §2, §3, §4, §5, §6, §7, §8, §9, §10, §11

[4] = system: Enterobacter cloacae DSM 30054; experiment: as above; details: incubation 24 h at 37° C., detection limit log10(N)=1.4
Procedure: as §2, §3, §4, §5, §6, §7, §8, §9, §10, §11

[5] = system: Staphylococcus aureus ATCC 25923; experiment: as above; details: incubation 24 h at 37° C., detection limit log10(N)=1.4
Procedure: as §2, §3, §4, §5, §6, §7, §8, §9, §10, §11

[6] = system: Acinetobacter baumannii CIP 70.34; experiment: as above; details: incubation 24 h at 37° C., detection limit log10(N)=1.4
Procedure: as §2, §3, §4, §5, §6, §7, §8, §9, §10, §11

[7] = system: Enterococcus faecalis ATCC 29212; experiment: as above; details: incubation 24 h at 37° C., detection limit log10(N)=1.4
Procedure: as §2, §3, §4, §5, §6, §7, §8, §9, §10, §11

[8] = system: Penicillium chrysogenum HEM 20859; experiment: Tests on a fungus according to ISO 16869 (modified); set-up: key: mark 0 is ascribed when no growth is observed; mark 1 is ascribed when beginning of growth is observed; mark 2 is ascribed when obvious growth is observed; details: silicone film with 5% antimicrobial agent, 25° C., naked eye mark
Procedure: The antifungal activity of the silicone compositions of the invention was tested on the fungus line Penicillium chrysogenum HEM 20859, according to the procedure of the ISO 16869 standard (second edition, 2008).
as §1
Thus, each silicone film sample was placed in a Petri dish between a lower layer of nutrient salt agar (20 ml) and an upper layer of Peptone Dextrose agar in which fungus spores were dispersed. The remainder of the procedure of the aforementioned standard was followed.
The culture media were incubated at 25° C. for at least 48 h, and for up to 7 days.
The results are evaluated with the naked eye: • mark 0 is ascribed when no growth is observed, • mark 1 is ascribed when beginning of growth is observed, and • mark 2 is ascribed when obvious growth is observed.

[9] = silicone film with 2% antimicrobial agent
[10] = silicone film with 5% antimicrobial agent

Compound: CCCCCCCCn1cc[n+](C)c1.F[B-](F)(F)F [OMIM-BF4, 1-octyl-3-methylimidazolium tetrafluoroborate]
- Viability of yeasts (log10(N)) Candida albicans [1, 9]: 6.1 log10(N)
- Viability of yeasts (log10(N)) Candida albicans [1, 10]: 3.0 log10(N)
- Viability of bacteria (log10(N)) Escherichia coli [2, 9]: 1.4 log10(N)
- Viability of bacteria (log10(N)) Escherichia coli [2, 10]: 1.4 log10(N)
- Viability of bacteria (log10(N)) Klebsiella pneumoniae [3, 9]: 3.3 log10(N)
- Viability of bacteria (log10(N)) Klebsiella pneumoniae [3, 10]: 4.6 log10(N)
- Viability of bacteria (log10(N)) Enterobacter cloacae [4, 9]: 3.6 log10(N)
- Viability of bacteria (log10(N)) Enterobacter cloacae [4, 10]: 1.4 log10(N)
- Viability of bacteria (log10(N)) Staphylococcus aureus [5, 9]: 1.6 log10(N)
- Viability of bacteria (log10(N)) Staphylococcus aureus [5, 10]: 1.4 log10(N)
- Viability of bacteria (log10(N)) Acinetobacter baumannii [6, 9]: 5.8 log10(N)
- Viability of bacteria (log10(N)) Acinetobacter baumannii [6, 10]: 1.4 log10(N)
- Viability of bacteria (log10(N)) Enterococcus faecalis [7, 9]: 3.6 log10(N)
- Viability of bacteria (log10(N)) Enterococcus faecalis [7, 10]: 1.4 log10(N)

Compound: CCCCCCCCCCCCn1cc[n+](C)c1.F[B-](F)(F)F [DMIM-BF4, 1-dodecyl-3-methylimidazolium tetrafluoroborate]
- Viability of yeasts (log10(N)) Candida albicans [1, 9]: 1.4 log10(N)
- Viability of yeasts (log10(N)) Candida albicans [1, 10]: 1.4 log10(N)
- Viability of bacteria (log10(N)) Escherichia coli [2, 9]: 1.4 log10(N)
- Viability of bacteria (log10(N)) Escherichia coli [2, 10]: 1.4 log10(N)
- Viability of bacteria (log10(N)) Klebsiella pneumoniae [3, 9]: 1.4 log10(N)
- Viability of bacteria (log10(N)) Klebsiella pneumoniae [3, 10]: 1.4 log10(N)
- Viability of bacteria (log10(N)) Enterobacter cloacae [4, 9]: 1.4 log10(N)
- Viability of bacteria (log10(N)) Enterobacter cloacae [4, 10]: 1.4 log10(N)
- Viability of bacteria (log10(N)) Staphylococcus aureus [5, 9]: 1.4 log10(N)
- Viability of bacteria (log10(N)) Staphylococcus aureus [5, 10]: 1.4 log10(N)
- Viability of bacteria (log10(N)) Acinetobacter baumannii [6, 9]: 1.6 log10(N)
- Viability of bacteria (log10(N)) Acinetobacter baumannii [6, 10]: 1.4 log10(N)
- Viability of bacteria (log10(N)) Enterococcus faecalis [7, 9]: 1.4 log10(N)
- Viability of bacteria (log10(N)) Enterococcus faecalis [7, 10]: 1.4 log10(N)
- Observation of the growth of fungi Penicillium chrysogenum, Incubation for 48 h ([8]; 48 h): 0
- Observation of the growth of fungi Penicillium chrysogenum, Incubation for 7 days ([8]; 7 days): 0
